Patent US9062123B2, “Labelled adrenomedullin derivatives and their use for imaging and therapy” (PLUMOSCIENCE INC., priority 2004, dated 2015)

What follows are compounds tested against AM1 (CRLR+RAMP2) receptor, lungs of dogs (assay: Displacement of labelled human adrenomedullin in the lungs of dogs). Details: displacement of labelled hAM.
Format: binding, dog
`CC[C@H](C)[C@H](NC(=O)[C@H](CCC(N)=O)NC(=O)[C@H](Cc1c[nH]cn1)NC(=O)[C@H](C)NC(=O)[C@H](CC(C)C)NC(=O)[C@H](CCCCN)NC(=O)[C@H](CCC(N)=O)NC(=O)[C@@H](NC(=O)[C@@H](NC(=O)[C@@H]1CSSC[C@H](NC(=O)CNC(=O)[C@H](Cc2ccccc2)NC(=O)[C@H](CO)NC(=O)[C@H](CCCNC(=N)N)NC(=O)[C@H](CC(C)C)NC(=O)CNC(=O)[C@H](CCC(N)=O)NC(=O)[C@H](Cc2ccccc2)NC(=O)[C@H](CC(N)=O)NC(=O)[C@H](CC(N)=O)NC(=O)[C@H](CCSC)NC(=O)[C@H](CO)NC(=O)[C@H](CCC(N)=O)NC(=O)[C@H](CCCNC(=N)N)NC(=O)[C@@H](N)Cc2ccc(O)cc2)C(=O)N[C@@H](CCCNC(=N)N)C(=O)N[C@@H](Cc2ccccc2)C(=O)NCC(=O)N[C@@H]([C@@H](C)O)C(=O)N1)[C@@H](C)O)C(C)C)C(=O)N[C@@H](Cc1ccc(O)cc1)C(=O)N[C@@H](CCC(N)=O)C(=O)N[C@@H](Cc1ccccc1)C(=O)N[C@H](C(=O)N[C@@H](CC(=O)O)C(=O)N[C@@H](CCCCN)C(=O)N[C@@H](CC(=O)O)C(=O)N[C@@H](CCCCN)C(=O)N[C@@H](CC(=O)O)C(=O)N[C@@H](CC(N)=O)C(=O)N[C@H](C(=O)N[C@@H](C)C(=O)N1CCC[C@H]1C(=O)N[C@@H](CCCNC(=N)N)C(=O)N[C@@H](CO)C(=O)N[C@@H](CCCCN)C(=O)N[C@H](C(=O)N[C@@H](CO)C(=O)N1CCC[C@H]1C(=O)N[C@@H](CCC(N)=O)C(=O)NCC(=O)N[C@@H](Cc1ccc(O)cc1)C(N)=O)[C@@H](C)CC)C(C)C)[C@@H](C)O` [hAM (cyclic), human adrenomedullin, reference compound] was tested, and the IC50 was […]. With `CC[C@H](C)[C@H](NC(=O)[C@H](CCC(N)=O)NC(=O)[C@H](Cc1c[nH]cn1)NC(=O)[C@H](C)NC(=O)[C@H](CC(C)C)NC(=O)[C@H](CCCCN)NC(=O)[C@H](CCC(N)=O)NC(=O)[C@@H](NC(=O)[C@@H](NC(=O)[C@H](CS)NC(=O)[C@@H](NC(=O)CNC(=O)[C@H](Cc1ccccc1)NC(=O)[C@H](CCCNC(=N)N)NC(=O)[C@H](CS)NC(=O)CNC(=O)[C@H](Cc1ccccc1)NC(=O)[C@H](CO)NC(=O)[C@H](CCCNC(=N)N)NC(=O)[C@H](CC(C)C)NC(=O)CNC(=O)[C@H](CCC(N)=O)NC(=O)[C@H](Cc1ccccc1)NC(=O)[C@H](CC(N)=O)NC(=O)[C@H](CC(N)=O)NC(=O)[C@H](CCSC)NC(=O)[C@H](CO)NC(=O)[C@H](CCC(N)=O)NC(=O)[C@H](CCCNC(=N)N)NC(=O)[C@@H](N)Cc1ccc(O)cc1)[C@@H](C)O)[C@@H](C)O)C(C)C)C(=O)N[C@@H](Cc1ccc(O)cc1)C(=O)N[C@@H](CCC(N)=O)C(=O)N[C@@H](Cc1ccccc1)C(=O)N[C@H](C(=O)N[C@@H](CC(=O)O)C(=O)N[C@@H](CCCCN)C(=O)N[C@@H](CC(=O)O)C(=O)N[C@@H](CCCCN)C(=O)N[C@@H](CC(=O)O)C(=O)N[C@@H](CC(N)=O)C(=O)N[C@H](C(=O)N[C@@H](C)C(=O)N1CCC[C@H]1C(=O)N[C@@H](CCCNC(=N)N)C(=O)N[C@@H](CO)C(=O)N[C@@H](CCCCN)C(=O)N[C@H](C(=O)N[C@@H](CO)C(=O)N1CCC[C@H]1C(=O)N[C@@H](CCC(N)=O)C(=O)NCC(=O)N[C@@H](Cc1ccc(O)cc1)C(N)=O)[C@@H](C)CC)C(C)C)[C@@H](C)O` [hAM linear, Linear adrenomedullin] the IC50 was 7.1 nM. Compound “CGRP(8-37): CGRP fragment 8-37 [reference compound]” has an IC50 of at least 10000 nM. N-Ac hAM: N-terminal acetylated AM was tested, and the IC50 was 0.041 nM. For “PAMP: synthetic peptide of Table 1, not further defined (ARLDVASEFRKKWNKWALSR) [reference compound]”, the IC50 was at least 10000 nM. With “hAM2(16-47): fragment 16-47 of hAM2 (QVQNLSHRLWQLMGPAGRQDSAPVDPSSPHSY) [reference compound]” the IC50 was 980 nM. In the case of “hAM2: AM2, a peptide within the same family as AM [reference compound]”, the IC50 is reported as 480 nM. Compound “hAM(1-25): human adrenomedullin fragment, amino acids 1-25 (YRQSMNNFQGLRSFGCRFGTCTVQK)” has an IC50 of at least 10000 nM. With “hAM(13-52): human adrenomedullin fragment, amino acids 13-52” the IC50 was 34 nM.
